Two compounds from patent publication US20260209777A1, “TARGETING GLYCOSYLPHOSPHATIDYLINOSITOL (GPI) PATHWAY PROTEINS TO TREAT OVARIAN CANCER” (UNIVERSITY OF MASSACHUSETTS, priority 2023, published 2026) can be followed below.

Molecules are shown by their SMILES.

The subject of one test is SKOV3 cells. As to the kind of experiment: In vitro phagocytosis assay of SKOV3 cells by PBMC-derived M2 macrophages. In kind it is cell-based, human. The settings on record: bestatin 20 μM, tosedostat 20 μM, vs DMSO.
The next test deals with OVCAR8-GFP-Luc cells. As to the kind of experiment: Intraperitoneal OVCAR8 xenograft in NSG mice (bioluminescence imaging, ascites, in vivo phagocytosis). The method, then:
Animal Experiments: All mouse studies were performed in accordance with the Guide for the Care and Use of Laboratory Animals from NIH, and a protocol (202000157) approved by the UMass Chan Medical School Institutional Animal Care and Use Committee (IACUC). Female NSG mice (n=3 per group), 6-7 weeks of age, were injected intraperitoneally with 4×10^6 OVCAR8/EmGFP-luc cells or OVCAR8-ΔGPAA1/EmGFP-luc cells. Tumors were analyzed using bioluminescence imaging beginning 7 days post-engraftment and continuing every 7 days until day 28. Mice were injected intraperitoneally with firefly D-luciferin at 140 mg/kg in PBS and images were acquired 10 min after luciferin injection using an IVIS Spectrum (Perkin Elmer). Total flux was quantified using Living Image 4.0 software (IVIS Imaging Systems).
For macrophage depletion experiments, 200 μl of clodronate liposomes (Liposoma) was administered intraperitoneally every 4 days for 16 days before tumor implantation, followed by injection of 100 μl of clodronate liposomes every 4 days. Depletion of […] was verified by flow cytometry analysis peritoneal lavage using an APC anti-mouse F4/80 antibody (BioLegend, Cat #123116, clone BM8, 1:50 dilution).
[…] Tumors were analyzed by in vivo bioluminescence imaging as described above.
In vivo Phagocytosis Assay: An in vivo phagocytosis assay was performed as described previously (Barkal et al., Nature 2019, 572(7769):392-396). Mice were implanted with 4×10^6 OVCAR8/EmGFP-luc cells as described above and 7 days later bestatin (100 mg/kg) was administered daily by intraperitoneal injection. After 10 days of bestatin treatment, peritoneal ascites was harvested. Single-cell suspensions of ascitic cells were blocked using TruStain FcX (anti-mouse CD16/32 antibody (BioLegend, Cat #101320) for 10 min at room temperature and then stained with an APC anti-mouse F4/80 antibody (BioLegend, Cat #123116, clone BM8, 1:50 dilution) for 30 min on ice in the dark. The percentage of cells undergoing phagocytosis was calculated as the percentage of F4/80+ EmGFP+ double-positive cells in the population.

The test system of test [1] is CD24 cell surface expression in SKOV3 cells. As to the kind of experiment: CD24 flow cytometry analysis in SKOV3 cells. It is filed as cell-based, human. The settings on record: 3 days, bestatin 10 or 20 μM, tosedostat 5 or 10 μM, vs DMSO. The method, then: Flow Cytometry Analysis: For cell surface protein staining, 1×10^5-1×10^6 cells were first incubated with Fc receptor blocking solution, Human TruStain FcXTM (BioLegend, Cat #422301) for 10 minutes at room temperature. Cells were washed once in FACS buffer (1×PBS, 1.0% bovine serum albumin (BSA) (Sigma) and 0.2% sodium azide (Sigma), and then incubated with antibodies (given below) for 30 minutes at 4° C. in the dark. Cells were also stained with 7-AAD (Biolegend, Cat #420404) for dead cell exclusion, and flow cytometry analysis was performed using a Bio-Rad ZE5 Cell Analyzer. Following antibodies used in this study (all antibodies were used at 1:50 dilution unless otherwise noted): APC anti-human CD24 (BioLegend, Cat #311118, clone ML5), PE anti-human CD24 (eBioscience, Cat #12-0247-42, clone SN3), APC anti-human CD47 (BioLegend, Cat #323124, clone CC2C6), APC anti-human § 2-microglobulin (BioLegend, Cat #395711, clone […]), PE anti-human HLA-A2 (MHC-class I) (BioLegend, Cat #343305, clone BB7.2), APC anti-human CD11b (BioLegend, Cat #982604, clone ICRF44), APC anti-mouse F4/80 antibody (BioLegend, Cat #123116, clone BM8), APC-streptavidin (Thermo Fisher Scientific, Cat #SA1005, 1:100 dilution), PE anti-Calreticulin (Invitrogen, Catalog #MA5-15382, 1:200 dilution). […]
For orientation: In flow cytometry, cells or beads pass a laser one at a time.

As to `CC(C)C[C@H](NC(=O)[C@@H](O)[C@H](N)Cc1ccccc1)C(=O)O` [bestatin], the macrophage-mediated phagocytosis entry in the test with SKOV3 cells is listed as “substantially increased”. For the same compound, the “tumor growth (total flux, in vivo bioluminescence imaging)” value with OVCAR8-GFP-Luc cells (NSG mice, IP OVCAR8-GFP-Luc, bestatin 100 mg/kg/d IP vs vehicle (FIG. 10C)) is “significantly reduced”. Further, the “GFP+F4/80+ double-positive cells in ascites (in vivo phagocytosis)” value with OVCAR8-GFP-Luc cells (bestatin 100 mg/kg daily IP, 10 days, vs vehicle (FIG. 10E)) is “increase”. Besides, the ascites volume entry in the test with OVCAR8-GFP-Luc cells (bestatin 100 mg/kg/d IP, 10 days of treatment, vs vehicle (FIG. 10D)) is recorded as “significantly reduced”.

For the compound `CC(C)C[C@@H](C(=O)N[C@H](C(=O)OC1CCCC1)c1ccccc1)[C@H](O)C(=O)NO` [tosedostat], the “CD24 cell surface expression (MFI)” value in test [1] is “reduced”. For the same compound, the macrophage-mediated phagocytosis entry in the test on SKOV3 cells was “increased”.
